Like-named read-outs stand apart in the source and are kept apart here.
System: canola
Conditions: for Average Relative Yield: relative to PROSPER EVERGOL

## O=C1C=C(N(Cc2ccc(Cl)nc2)CC(F)F)CO1 [Flupyradifurone, flupyradifurone]
Flupyradifurone 5 g per kg seed, alone or + QST713 1 × 10^6 CFU per seed
  Average Relative Yield: 102.0%
Flupyradifurone 10 g per kg seed
  Average Relative Yield: 100.5%
In vivo
  Average Relative Stand Density: 83.2%
  Average Vigor Rating: 4.2
  Relative Delay in Emergence: 3.5 days
  average relative stand density: decreased
  delay in emergence: significant delay in emergence
